The values that follow come from PMC10079954, “Rational design of phase separating peptides based on phase separating protein sequence of p53” (Scientific Reports, 2023).

Series [1] is described as follows: Single-molecule fluorescence tracking (HILO) of labeled molecules in their droplets. Type of series: physicochemical. The conditions noted are these: Alexa488-labeled peptide 10–100 pM in 0.9 mM non-labeled peptide droplets; 25 mM HEPES, 0.5 mM EDTA, 45 mM NaCl, 150 mg/mL dextran, pH 7.0; linear fit of MSD (4D slope). Here is the method:
We quantitatively characterized the liquid droplet properties of the four designed peptides and compared them with those of p53. We measured the fusion of the designed peptide droplets in the solution used for p53 droplets (Supplementary Fig. S4). In the presence of 45 mM NaCl and 150 mg/mL dextran, the fusion of droplets for the four designed peptides was observed within 0.2 s, which was much faster than that for p53 (3.7 min)[8]. This gap in the fusion period implies different intrinsic dynamic properties. We measured the movement of Alexa488-labeled peptides within non-labeled peptide droplets using single-molecule fluorescence microscopy with a highly inclined and laminated optical sheet (HILO) illumination[37],[41] (Fig. 3A). […]
Single-molecule measurements were performed following the method described in our previous studies[37],[41]. An inverted fluorescence microscope (IX-73; Olympus) with a total internal reflection fluorescence unit (IX3RFAEVAW; Olympus) was used[52],[53]. […] The fluorescence collected via the objective lens was detected using an EM-CCD camera (iXon Ultra 888, Andor). […] Images were recorded at intervals of 15–154 ms after reducing the number of observable molecules in the droplets by photobleaching within one minute. […]

Series [2] relates to p53 monomer (L344P) mutant. As to the kind of experiment: Recruitment (enrichment index) of p53 monomer into designed peptide droplets. Set-up: species or system human. The conditions noted are these: (GGGS)3-linker versus GSGS-linker droplets; no salt, pH 7.0. The source says:
(§1) We prepared p53 tetramer, dimer, and monomer mutants, as described previously[8],[37],[50]. For the p53 tetramer, a thermostable and cysteine-modified human p53 mutant (C124A, C135V, C141V, W146Y, C182S, V203A, R209P, C229Y, H233Y, Y234F, N235K, Y236F, T253V, N268D, C275A, C277A, and K292C) was used[50]. The dimer and monomer mutants of p53 corresponded to L344A and L344P of the tetramer sequence, respectively[8],[37]. These p53 mutants were expressed with a glutathione S-transferase (GST) tag in E. coli and purified after cleavage of the GST tag, as described previously[50],[51]. The oligomeric state of p53 mutants was confirmed using a gel filtration column (Superdex 200; GE Healthcare). p53 mutants were labeled with Atto488 (ATTO-TEC) or Alexa488 (Thermo Fisher) using maleimide chemistry and then purified using a heparin column (GE Healthcare). We prepared Alexa488-labeled FUS-MBP as described previously[37],[39].
(§2) Recruitment evaluations were performed following the method described in our previous studies[37],[41]. Solutions containing 0.9–1.8 mM designed peptides, 0.1 µM Alexa488-labeled p53 mutants or Alexa488, 25 mM HEPES, 0.5 mM EDTA, and 1 mM DTT at pH 7.0 were used. The solutions were then incubated at 22 °C for five minutes. The aforementioned microscope was used with HILO illumination. To prevent photo-bleaching of the fluorescent samples, we used a laser power of 0.15 mW. The images were acquired at 22 °C. Using the ImageJ software, we calculated the EI values of the individual droplets as follows:2 EI=Idroplet/Isolution, where Idroplet and Isolution represent the average fluorescence intensities of the individual droplets and solutions near the droplets with background substitution, respectively.

Series [3] deals with p53 dimer (L344A) mutant. The series is described as follows: Recruitment (enrichment index) of p53 dimer into designed peptide droplets. Set-up: species or system human. The conditions noted are these: (GGGS)3-linker versus GSGS-linker droplets; no salt, pH 7.0.
Description: as §1
Recruitment evaluations were performed following the method described in our previous studies[37],[41]. […] Using the ImageJ software, we calculated the EI values of the individual droplets as follows:2 EI=Idroplet/Isolution, where Idroplet and Isolution represent the average fluorescence intensities of the individual droplets and solutions near the droplets with background substitution, respectively.

For series [4], the system named is p53 tetramer. As to the kind of experiment: Recruitment (enrichment index) of p53 tetramer into designed peptide droplets. Set-up: species or system human. The conditions noted are these: (GGGS)3-linker versus GSGS-linker droplets; no salt, pH 7.0.
Description: as §1, §2

As for “RRRVVQRRRRGGGSGGGSGGGSDDDASQEDDD [DPp53N-(GGGS)3-DPp53C1]”, the “Average diffusion coefficient (D) in own droplets” value in series [1] turned out to be 2.03 ± 0.06 μm^2/s. In series [2], the “Decrease of average EI of p53 monomer mutant compared to the GSGS-linker peptide” value is on record as 1.2 fold. The “Increase of average EI of p53 dimer mutant compared to the GSGS-linker peptide” value in series [3] amounted to 1.5 fold. In series [4], the “Increase of average EI of p53 tetramer compared to the GSGS-linker peptide” value came out at 1.8 fold.
